Data taken from patent publication US10149887B2, “Peptides and peptidomimetics in combination with t cell activating and/or checkpoint inhibiting agents for cancer treatment” (CanBas Co., Ltd., priority 2015, dated 2018).
Like-named read-outs stand apart in the source and are kept apart here. Square brackets hold non-standard residues; d marks the D form. Peptide text beside a SMILES is read from it. dPhe(F5) = N[C@H](Cc1c(F)c(F)c(F)c(F)c1F)C(=O)O; dBpa = N[C@H](Cc1ccc(C(=O)c2ccccc2)cc1)C(=O)O; dCha = N[C@H](CC1CCCCC1)C(=O)O

Experiments:
[1] = tested on: thrombin/antithrombin complex; experiment: Thrombin/antithrombin complex in plasma of LPS treated mice (ELISA); type: in vivo, mouse; conditions: C57BL/6 mice, CBP501 7.5 mg/kg, plasma 3 hours after
Text: The data were obtained in each condition out of four animals.

HUVEC = experiment: Growth of normal human umbilical endothelial cells (HUVEC); type: cell-based; conditions: peptide by itself
Procedure: Similar studies were performed using normal human umbilical endothelial cells (HUVEC).

CT26WT = experiment: Analysis of tumor infiltrating lymphocytes in CT26WT tumors (flow cytometry); type: in vivo, mouse; conditions: day 11
Procedure: CT26WT were subcutaneously inoculated into the left flank of female Balb/c mice. […] Then, tumors were extracted from mice on day 11, and digested with triple enzyme mix (collagenase, hyaluronidase and DNase) to obtain single cell suspension. The cells were treated with FcR blocker and stained with specific antibody for multi-color flow cytometry analysis including CD4, CD8, CD45, CD11b, Ly6G, Ly6C, F4/80, MHC class II and CD206. Quantitative data (FIG. 32) are shown as mean values with SEM (n=3-4 mice/group). *: p<0.05, **: p<0.01, n.s.: not significant (unpaired, 2-tailed student's t-test), as compaired with cells from vehicle-treated or PD-1-treated tumor.

[2] = tested on: MIAPaCa2 human pancreatic carcinoma cells; experiment: MIAPaCa2 subcutaneous xenograft in scid mice; type: in vivo, mouse
Procedure: Day0 indicates treatment initiation. Mean tumor sizes with standard deviation for each treatment group are indicated on the Y-axis and the number of days following treatment initiation are indicated on the X-axis.
To study in vivo efficacy of the compounds, MIAPaCa2 human pancreatic carcinoma cells were implanted subcutaneously in scid mice. The treatment was initiated when the size of the primary tumor became 0.1 cm3 (Day0) or larger, e.g., 7 or 8 mm in diameter. CDDP (3 mg/kg) and CBP 501 (10 or 40 mg/kg) were intra-peritoneally administered alone or in combination. Tumor sizes were measured using calipers three times a week, and volumes were calculated using the formula: weight (mg)=[width (mm)2×length (mm)]/2. Mean tumor sizes for each treatment group are plotted (n=4) against the days after the start of treatment (FIG. 10).

calreticulin = experiment: Cell surface calreticulin exposure in CT26WT cells (FACS); type: cell-based, murine; conditions: 10-20 uM CDDP with 0.5 μM CBP501, 45 min
Procedure: Two days later, the cells were collected and analyzed by FACS with specific calreticulin antibody and propidium iodide (n=3). Samples were compared by student's t-test. *P<0.05 **P<0.01, compared with untreated cells, and ^†P<0.05, ^††P<0.01, compared with the corresponding CDDP alone.
(§1) After changing with fresh drug-free medium, cells were incubated for 24, 48, or 72 hours for Immunoblotting analysis of phospho-eIF2-alpha, for calreticulin analysis by FACS, or for HMGB1 ELISA.
Cells were collected and washed with PBS, followed by fixation with PBS containing 0.25% PFA for 5 minutes. The fixed cells were washed twice with ice-cold PBS and treated on ice with anti-calreticulin antibody (abcam) diluted with PBS containing 2% FBS (1/200) for 30 minutes. The primary antibody were removed with twice PBS containing 2% FBS wash and treated with alexa488-condjugated secondary antibody diluted with PBS containing 2% FBS (1/500) for 30 minutes at RT. The secondary antibody were removed with twice PBS and treated on ice with propidium iodide (1 ug/ml) for more than 5 minutes, followed by FACS analysis using FACSCalibur.

neutrophils = experiment: NET formation by activated neutrophils (elastase activity); type: cell-based, human; conditions: 1 μM CBP501; PMA, A23187 or LPS
Text: Referring to FIG. 17, Neutrophils were purified with EasySep neutrophil enrichment kit (Stemcell technol.) from human peripheral blood after removal of red blood cells with Hetasep (Stemcell technol.).

M1 and M2 macrophages = experiment: Phagocytic activity of M1 and M2 macrophages (fluorescent beads, flow cytometry); type: cell-based, human; conditions: in vitro
Procedure: Referring to FIGS. 19A and 19B, macrophages were obtained by stimulating human peripheral blood mononuclear cells by 0.32 uM of PMA and removing all suspension cells 48 hours of PMA stimulation. The cells were further incubated with 50 ng/ml IFN-gamma, 10 ng/ml LPS to obtain M1 phenotype, and 20 ng/ml IL-4 to obtaine M2 macrophages. Both treatment was with or without CBP501. The phagocytic activity was monitored by using fluorescent labelled beads and flow cytometry.

phospho-eIF2-alpha = experiment: CDDP-induced phosphorylation of eIF2-alpha in CT26WT cells (immunoblotting); type: cell-based, murine; conditions: 10-20 uM CDDP with 0.5 μM CBP501, 45 min
Procedure: A day later, cells were collected and analyzed by immunoblotting using specific antibody against phospho-eIF2-alpha (n=8) (FIG. 22A) and the amount of relative Phospho-eIF2-alpha was quantitated (FIG. 22B). Samples were compared by student's t-test. *P<0.05 **P<0.01, compared with untreated cells, and ^†P<0.05, ^††P<0.01, compared with the corresponding CDDP alone.
as §1
Cells were lysed by incubating with a buffer [NaCl (100 mM), Tris-HCl (50 mM, pH 8.0), DTT (1 mM), NP40 (0.5% w/v) containing PhosSTOP Phosphatase Inhibitor Cocktail and Complete Proteinase Inhibitor Cocktail Tablets (Roche Life Science) each diluted to the manufacturer's specified concentrations] at 4° C. for 30 minutes and centrifuged (15 000 rpm, 4° C., 20 minutes). The supernatant (whole-cell lysate) was electrophoresed (SDS-PAGE), and transferred from the gel onto a polyvinylidene difluoride (PVDF) membrane (Millipore) by electroblotting. […] Images were recorded with a Luminescent Image Analyzer LAS-4000 system (Fujifilm) and quantified the band intensity with Multi Gauge software (Fujifilm).

[3] = Maximal tolerated dose in mouse by single injection; conditions: in vivo, observed for a week
[4] = cited from earlier work
advanced solid tumors = conditions: monotherapy, cited from earlier work

Q: For `N=C(N)NCCC[C@@H](NC(=O)[C@@H](CCCNC(=N)N)NC(=O)[C@@H](CCC(N)=O)NC(=O)[C@@H](CCCNC(=N)N)NC(=O)[C@@H](CCCNC(=N)N)NC(=O)[C@@H](CCCNC(=N)N)NC(=O)[C@@H](CC1CCCCC1)NC(=O)[C@@H](Cc1c(F)c(F)c(F)c(F)c1F)NC(=O)[C@@H](CO)NC(=O)[C@@H](Cc1c[nH]c2ccccc12)NC(=O)[C@@H](CO)NC(=O)[C@H](N)Cc1ccc(C(=O)c2ccccc2)cc1)C(=O)O` [CBP501, (d-Bpa)(d-Ser)(d-Trp)(d-Ser)(d-Phe-2,3,4,5,6-F)(d-Cha)(d-Arg)(d-Arg)(d-Arg)(d-Gln)(d-Arg)(d-Arg)] (H-[dBpa][dS][dW][dS][dPhe(F5)][dCha][dR][dR][dR][dQ][dR][dR]-OH; N-terminus and C-terminus assumed), which Solubility in water (Solubility in water) is on record?
A: soluble in water

Q: And the “Thrombin/anti-thrombin complexes in vivo” value [1]?
A: increased thrombin/anti-thrombin complexes

Q: And the “Growth of normal cells (HUVEC)” value (HUVEC)?
A: does not affect the growth of HUVEC cells

Q: What about the “CD8 (=CD45+CD8+) infiltration at tumor site, combined with CDDP and anti-PD1 antibody” value (CT26WT; CDDP 4 mg/kg + CBP501 6 mg/kg + anti-PD1 400 ug/mouse) of the same compound?
A: statistically significant

Q: And the “CD8 (=CD45+CD8+) infiltration at tumor site, combined with CDDP” value (CT26WT; CDDP 4 mg/kg i.v. + CBP501 6 mg/kg i.v.)?
A: tended to increase

Q: And the “M2 macrophages (=F4/80+CD206+) in tumor” value (CT26WT; combined with CDDP or CDDP plus anti-PD1 antibody)?
A: decreased M2 macrophages

Q: And the “Tumor growth, CBP501 treatment alone” value ([2]; CBP501 10 or 40 mg/kg ip)?
A: suppresses the growth of human pancreatic cancer cell in vivo

Q: What about the “Anti-tumor activity of cisplatin in combination with CBP501” value ([2]; CDDP 3 mg/kg and CBP501 10 or 40 mg/kg ip) of the same compound?
A: increased the anti-tumor activity of cisplatin

Q: What about the “Calreticulin exposure to the cell surface” value (calreticulin) of the same compound?
A: Positive effect

Q: And the “NET formation by activated neutrophils” value (neutrophils)?
A: increased NET formation

Q: And the “Phagocytosis of M1 and M2 macrophages” value (M1 and M2 macrophages)?
A: inhibited phagocytosis of both M1 and M2 macrophages

Q: What about the “CDDP-induced phosphorylation of eIF2-alpha” value (phospho-eIF2-alpha) of the same compound?
A: augmented

Q: What about the MTD at 1 week ([3]; ip, single intra-peritoneal injection, read-out: MTD (ip)) of the same compound?
A: 98.8 mg/kg

Q: What about the MTD at 1 week ([3]; single intravenous injection, read-out: MTD (iv)) of the same compound?
A: 10 mg/kg

Q: What about the “Patients with dose limiting allergic reactions (grade 3)” value ([4]; CBP501 36.4 mg/m^2 and cisplatin 75 mg/m^2) of the same compound?
A: two out of six

Q: And the “MTD of CBP501 in combination with cisplatin” value ([4]; with cisplatin 75 mg/m^2, once every 21 days)?
A: 24.3 mg/m^2

Q: And the Stable disease (advanced solid tumors; 60-min i.v. infusion days 1, 8, 15 every 28 days)?
A: Two patients achieved 7 cycles of treatment with stable disease

Q: What about the “Discontinuation due to toxicity” value (advanced solid tumors; days 1-8-15 every 28 days) of the same compound?
A: No patients discontinued due to toxicity
